Measurements published in patent US9540392B2, “Thienopyrimidines” (BAYER PHARMA AKTIENGESELLSCHAFT, priority 2012, dated 2017).

The compounds below were run against T1, human full-length MKNK1 (Homo sapiens, UniProt Q9BUB5, T385D) (assay: MKNK1 kinase high ATP assay (TR-FRET)). Conditions: 2 mM ATP, after preincubation with MKNK1; read-out: MKNK1 IC50 (MKNK1 high ATP).
T1 construct: GST (N); purchased Carna Biosciences 02-145; host or cells: insect cells (baculovirus expression system)
Type: biochemical
Method: MKNK1-inhibitory activity at high ATP of compounds of the present invention after their preincubation with MKNK1 was quantified employing the TR-FRET-based MKNK1 high ATP assay as described in the following paragraphs.
As substrate for the kinase reaction the biotinylated peptide biotin-Ahx-[…] (C-terminus in amide form) was used, which can be purchased e.g. from the company Biosyntan (Berlin-Buch, Germany).
For the assay 50 nL of a 100 fold concentrated solution of the test compound in DMSO was pipetted into a black low volume 384 well microtiter plate (Greiner Bio-One, Frickenhausen, Germany), 2 μL of a solution of MKNK1 in aqueous assay buffer [50 mM HEPES pH 7.5, 5 mM MgCl2, 1.0 mM dithiothreitol, 0.005% (v/v) Nonidet-P40 (Sigma)] was added and the mixture was incubated for 15 min at 22° C. to allow pre-binding of the test compounds to the enzyme before the start of the kinase reaction. Then the kinase reaction was started by the addition of 3 μL of a solution of adenosine-tri-phosphate (ATP, 3.3 mM=>final conc. in the 5 μL assay volume is 2 mM) and substrate (0.1 μM=>final conc. in the 5 μL assay volume is 0.06 μM) in assay buffer and the resulting mixture was incubated for a reaction time of 30 min at 22° C. The concentration of MKNK1 was adjusted depending of the activity of the enzyme lot and was chosen appropriate to have the assay in the linear range, typical concentrations were in the range of 0.003 μg/mL. The reaction was stopped by the addition of 5 μL of a solution of TR-FRET detection reagents (5 nM streptavidine-XL665 [Cisbio Bioassays, Codolet, France] and 1 nM anti-ribosomal protein S6 (pSer236)-antibody from Invitrogen [#44921G] and 1 nM LANCE EU-W1024 Labeled ProteinG [Perkin-Elmer, product no. AD0071]) in an aqueous EDTA-solution (100 mM EDTA, 0.1% (w/v) bovine serum albumin in 50 mM HEPES pH 7.5).
The resulting mixture was incubated for 1 h at 22° C. to allow the formation of complex between the phosphorylated biotinylated peptide and the detection reagents. Subsequently the amount of phosphorylated substrate was evaluated by measurement of the resonance energy transfer from the Eu-chelate to the streptavidine-XL. Therefore, the fluorescence emissions at 620 nm and 665 nm after excitation at 350 nm were measured in a TR-FRET reader, e.g. a Rubystar (BMG Labtechnologies, Offenburg, Germany) or a Viewlux (Perkin-Elmer). The ratio of the emissions at 665 nm and at 622 nm was taken as the measure for the amount of phosphorylated substrate.

T1 sequence (Q9BUB5 1-424 isoform Q9BUB5-2 T344D): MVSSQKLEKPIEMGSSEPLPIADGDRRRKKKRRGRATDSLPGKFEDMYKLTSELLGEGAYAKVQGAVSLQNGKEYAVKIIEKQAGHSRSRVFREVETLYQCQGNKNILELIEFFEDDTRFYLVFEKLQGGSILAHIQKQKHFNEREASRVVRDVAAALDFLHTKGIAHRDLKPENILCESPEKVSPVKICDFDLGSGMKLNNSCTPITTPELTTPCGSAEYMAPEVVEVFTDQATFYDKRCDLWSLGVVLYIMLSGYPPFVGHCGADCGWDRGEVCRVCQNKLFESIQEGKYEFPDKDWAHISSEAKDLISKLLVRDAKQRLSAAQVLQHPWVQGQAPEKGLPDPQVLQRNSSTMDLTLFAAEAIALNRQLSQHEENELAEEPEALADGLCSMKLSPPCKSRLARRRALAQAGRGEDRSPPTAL

SMILES	IC50
Cc1cccc(N2CCN(C(=O)C3CCc4c(sc5ncnc(Nc6ccc7[nH]ncc7c6)c45)C3)CC2)c1 (racemic) [Example 111, (RS)-[4-(1H-indazol-5-ylamino)-5,6,7,8-tetrahydro[1]benzothieno[2,3-d]pyrimidin-7-yl][4-(3-methylphenyl)piperazin-1-yl]methanone]	24.7 nM
O=C(NCCOc1ccccc1)C1CCc2c(sc3ncnc(Nc4ccc5[nH]ncc5c4)c23)C1 (stereo not shown) [Example 31, 4-(1H-Indazol-5-ylamino)-N-(2-phenoxyethyl)-5,6,7,8-tetrahydro[1] benzothieno [2,3-d]pyrimidine-7-carboxamide]	4 nM
O=C(C1CCc2c(sc3ncnc(Nc4ccc5[nH]ncc5c4)c23)C1)N1CCN(c2cnccn2)CC1 (racemic) [Example 114, (RS)-[4-(1H-indazol-5-ylamino)-5,6,7,8-tetrahydro[1]benzothieno[2,3-d]pyrimidin-7-yl][4-(pyrazin-2-yl)piperazin-1-yl]methanone]	12.5 nM
O=C(C1CCc2c(sc3ncnc(Nc4ccc5[nH]ncc5c4)c23)C1)N1CCC1 (stereo not shown) [Example 43, Azetidin-1-yl[4-(1H-indazol-5-ylamino)-5,6,7,8-tetrahydro[1]benzothieno [2,3-d]pyrimidin-7-yl]methanone]	9 nM
O=C(NCCc1c[nH]cn1)C1CCc2c(sc3ncnc(Nc4ccc5[nH]ncc5c4)c23)C1 (racemic) [Example 92, (RS)-N-[2-(1H-imidazol-4-yl)ethyl]-4-(1H-indazol-5-ylamino)-5,6,7,8-tetrahydro[1]benzothieno[2,3-d]pyrimidine-7-carboxamide]	9.8 nM
CC(C)(NC(=O)C1CCc2c(sc3ncnc(Nc4ccc5[nH]ncc5c4)c23)C1)c1ccc(F)cc1 (racemic) [Example 161, (RS)-N-[2-(4-fluorophenyl)propan-2-yl]-4-(1H-indazol-5-ylamino)-5,6,7,8-tetrahydro[1]benzothieno[2,3-d]pyrimidine-7-carboxamide]	3.2 nM
Cn1cncc1CNC(=O)C1CCc2c(sc3ncnc(Nc4ccc5[nH]ncc5c4)c23)C1 (racemic) [Example 152, (RS)-4-(1H-indazol-5-ylamino)-N-[(1-methyl-1H-imidazol-5-yl)methyl]-5,6,7,8-tetrahydro[1]benzothieno[2,3-d]pyrimidine-7-carboxamide]	16.8 nM
O=C(Nc1ccccn1)C1CCc2c(sc3ncnc(Nc4ccc5[nH]ncc5c4)c23)C1 (racemic) [Example 99, (RS)-4-(1H-indazol-5-ylamino)-N-(pyridin-2-yl)-5,6,7,8-tetrahydro[1]benzothieno[2,3-d]pyrimidine-7-carboxamide]	27.7 nM
CC1CCCN(C(=O)C2CCc3c(sc4ncnc(Nc5ccc6[nH]ncc6c5)c34)C2)C1 (racemic) [Example 104, (RS)-[4-(1H-indazol-5-ylamino)-5,6,7,8-tetrahydro[1]benzothieno[2,3-d]pyrimidin-7-yl](3-methylpiperidin-1-yl)methanone]	7.4 nM
O=C(C1CCc2c(sc3ncnc(Nc4ccc5[nH]ncc5c4)c23)C1)N1CCCC1 (stereo not shown) [Example 51, [4-(1H-Indazol-5-ylamino)-5,6,7,8-tetrahydro[1]benzothieno [2,3-d]pyrimidin-7-yl](pyrrolidin-1-yl)methanone]	15 nM
O=C(C1CCc2c(sc3ncnc(Nc4ccc5[nH]ncc5c4)c23)C1)N1CCN(CC2CC2)CC1 (racemic) [Example 191, (RS)-[4-(cyclopropylmethyl)piperazin-1-yl][4-(1H-indazol-5-ylamino)-5,6,7,8-tetrahydro[1]benzothieno[2,3-d]pyrimidin-7-yl]methanone]	7.3 nM
Cn1ccnc1CNC(=O)C1CCc2c(sc3ncnc(Nc4ccc5[nH]ncc5c4)c23)C1 (racemic) [Example 165, (RS)-4-(1H-indazol-5-ylamino)-N-[(1-methyl-1H-imidazol-2-yl)methyl]-5,6,7,8-tetrahydro[1]benzothieno[2,3-d]pyrimidine-7-carboxamide]	16.8 nM
CS(=O)(=O)N1CCN(C(=O)C2CCc3c(sc4ncnc(Nc5ccc6[nH]ncc6c5)c34)C2)CC1 (racemic) [Example 156, (RS)-[4-(1H-indazol-5-ylamino)-5,6,7,8-tetrahydro[1]benzothieno[2,3-d]pyrimidin-7-yl][4-(methylsulfonyl)piperazin-1-yl]methanone]	18.3 nM

Further lines, results first:

IC50	SMILES
3.2 nM	COc1cc2[nH]ncc2cc1Nc1ncnc2sc3c(c12)CCC(C(=O)N1CCCC1)C3 (racemic) [Example 183, (RS)-{4-[(6-Methoxy-1H-indazol-5-yl)amino]-5,6,7,8-tetrahydro[1]benzothieno[2,3-d]pyrimidin-7-yl}(pyrrolidin-1-yl)methanone]
9.5 nM	COCCN(C)C(=O)C1CCc2c(sc3ncnc(Nc4ccc5[nH]ncc5c4)c23)C1 (racemic) [Example 130, (RS)-4-(1H-indazol-5-ylamino)-N-(2-methoxyethyl)-N-methyl-5,6,7,8-tetrahydro[1]benzothieno[2,3-d]pyrimidine-7-carboxamide]
7 nM	COc1ccc(NC(=O)C2CCc3c(sc4ncnc(Nc5ccc6[nH]ncc6c5)c34)C2)cc1 (stereo not shown) [Example 14, 4-(1H-indazol-5-ylamino)-N-(4-methoxyphenyl)-5,6,7,8-tetrahydro[1]benzothieno[2,3-d]pyrimidine-7-carboxamide]
0.5 nM	COCCN(CCO)C(=O)C1CCc2c(sc3ncnc(Nc4cc5cn[nH]c5cc4OC)c23)C1 (racemic) [Example 207, (RS)—N-(2-Hydroxyethyl)-N-(2-methoxyethyl)-4-[(6-methoxy-1H-indazol-5-yl)amino]-5,6,7,8-tetrahydro[1]benzothieno[2,3-d]pyrimidine-7-carboxamide]
4.9 nM	CN(Cc1cccc(F)c1)C(=O)C1CCc2c(sc3ncnc(Nc4ccc5[nH]ncc5c4)c23)C1 (racemic) [Example 145, (RS)-N-(3-fluorobenzyl)-4-(1H-indazol-5-ylamino)-N-methyl-5,6,7,8-tetrahydro[1]benzothieno[2,3-d]pyrimidine-7-carboxamide]
10.2 nM	CC(C)NC(=O)C1CCc2c(sc3ncnc(Nc4cc5cn[nH]c5cc4F)c23)C1 (racemic) [Example 63, (RS)-4-[(6-Fluoro-1H-indazol-5-yl)amino]-N-(propan-2-yl)-5,6,7,8-tetrahydro[1]benzothieno[2,3-d]pyrimidine-7-carboxamide]
0.3 nM	CCOc1cc2[nH]ncc2cc1Nc1ncnc2sc3c(c12)CCC(C(=O)N1CC=CC1)C3 (racemic) [Example 255, (RS)-2,5-Dihydro-1H-pyrrol-1-yl{4-[(6-ethoxy-1H-indazol-5-yl)amino]-5,6,7,8-tetrahydro[1]benzothieno[2,3-d]pyrimidin-7-yl}methanone]
0.2 nM	CCOc1cc2[nH]ncc2cc1Nc1ncnc2sc3c(c12)CCC(C(=O)N(CC)CCOC)C3 (racemic) [Example 273, (RS)-4-[(6-Ethoxy-1H-indazol-5-yl)amino]-N-ethyl-N-(2-methoxyethyl)-5,6,7,8-tetrahydro[1]benzothieno[2,3-d]pyrimidine-7-carboxamide]
15 nM	CN(CCCO)C(=O)C1CCc2c(sc3ncnc(Nc4ccc5[nH]ncc5c4)c23)C1 (racemic) [Example 202, (RS)-N-(3-hydroxypropyl)-4-(1H-indazol-5-ylamino)-N-methyl-5,6,7,8-tetrahydro[1]benzothieno[2,3-d]pyrimidine-7-carboxamide]
20.6 nM	CCN(CC)CCN(C)C(=O)C1CCc2c(sc3ncnc(Nc4ccc5[nH]ncc5c4)c23)C1 (racemic) [Example 95, (RS)-N-[2-(diethylamino)ethyl]-4-(1H-indazol-5-ylamino)-N-methyl-5,6,7,8-tetrahydro[1]benzothieno[2,3-d]pyrimidine-7-carboxamide]
0.7 nM	COc1cc2[nH]ncc2cc1Nc1ncnc2sc3c(c12)CCC(C(=O)N1CC2(CCO2)C1)C3 (racemic) [Example 260, (RS)-{4-[(6-Methoxy-1H-indazol-5-yl)amino]-5,6,7,8-tetrahydro[1]benzothieno[2,3-d]pyrimidin-7-yl}(1-oxa-6-azaspiro[3.3]hept-6-yl)methanone]
14.7 nM	CCN(CC)C(=O)C1CCc2c(sc3ncnc(Nc4ccc5[nH]ncc5c4)c23)C1 (racemic) [Example 83, (RS)-N,N-diethyl-4-(1H-indazol-5-ylamino)-5,6,7,8-tetrahydro[1]benzothieno[2,3-d]pyrimidine-7-carboxamide]
